Earlier results as cited in US20190151045A1, “Device and Methods for Disinfecting Dental Lines” (Toppen Medical Dental LLC, priority 2017, published 2019).
Where two headings read alike, the source gives them in different places.

Conditions: dissipates into molecular oxygen, 0.5 mg/L ozone in dental water line

## O=[O+][O-] [ozone]
  half-life (t1/2) of ozone: ~20 min
Listed as Ozone
  half-life (t1/2) of ozone: about 20 min
